Measured values taken from patent publication US11566041B2, “Nucleotide prodrug compounds” (Ligand Pharmaceuticals Incorporated, priority 2020, dated 2023).

Experiments:
[1] = Tissue distribution following oral administration: blood metabolite nucleoside and liver nucleoside triphosphate levels; design: species or system rats; settings: rat, in vivo, 5 mg/kg; for Blood Nuc level at 1 hour / Liver NTP level at 1 hour / Blood Nuc level at 5 hours / Liver NTP level at 5 hours: po
Method: IV Remdesivir (2 mg/kg), oral Remdesevir (5 mg/kg) and oral test compound (5 mg/kg) were administered to rats. Oral administration was to fasted rats by oral gavage. Plasma concentrations of the metabolite nucleoside in circulation were determined by HPLC-UV, and the liver concentrations of the active triphosphate were measured by LC-MS using standard chromatography methods.
FIG. 4 is a graph showing the ratio of (concentration of corresponding nucleoside in the liver)/(concentration of corresponding nucleoside in the blood) after 1 and 5 hours from the second study.
Table 1 contains the blood and liver levels after 1 and 5 hours for a number of test compounds compared to oral Remdesivir.

[2] = Tissue distribution following inhalation administration: blood and lung metabolite nucleoside and lung triphosphate levels; assay type: in vivo, rats
Method: Remdesivir or the indicated test compound was administered at 2 mg/kg to rats by an inhalation route. The lung concentrations of the metabolite nucleoside and its triphosphate were measured by LC-MS using standard chromatography methods.

| Blood Nuc level at 1 hour [1] | Liver NTP level at 1 hour [1] [x] | Blood Nuc level at 5 hours [1] [x] | Liver NTP level at 5 hours [1] [x] | SMILES | Lung levels of the metabolite nucleoside, exposure relative to Remdesivir ([2]; rat, in vivo, 2 mg/kg) | Nucleoside triphosphate levels in the lung ([2]; rat, in vivo, 2 mg/kg) | Liver exposure of nucleoside triphosphate relative to IV or oral Remdesivir [1] | Nucleoside triphosphate levels in the lung ([2]; rats, 2 mg/kg inhalation route, FIG. 7) |
| --- | --- | --- | --- | --- | --- | --- | --- | --- |
| <1x | ≥2 | <1 | ≥2 | CCOC(=O)c1ccccc1COP1(=O)OC[C@H]2O[C@@](C#N)(c3ccc4c(N)ncnn34)[C@H](O)[C@@H]2O1 (stereo partly drawn) [Compound 101, Ethyl 2-((((4aR,6R,7R,7aS)-6-(4-aminopyrrolo[2,1-f][1,2,4]triazin-7-yl)-6-cyano-7-hydroxy-2-oxidotetrahydro-4H-furo[3,2-d][1,3,2]dioxaphosphinin-2-yl)oxy)methyl)benzoate] |  |  |  |  |
| ≥2x | ≥2 | ≥2 | ≥2 | CCOC(=O)c1ccccc1COP1(=O)OC[C@H]2O[C@@](C#N)(c3ccc4c(N)ncnn34)[C@H](OC(=O)CC)[C@@H]2O1 (stereo partly drawn) [Compound 106, Ethyl 2-((((4aR,6R,7R,7aR)-6-(4-aminopyrrolo[2,1-f][1,2,4]triazin-7-yl)-6-cyano-2-oxido-7-(propionyloxy)tetrahydro-4H-furo[3,2-d][1,3,2]dioxaphosphinin-2-yl)oxy)methyl)benzoate] |  |  |  |  |
|  |  |  |  | CCC(CC)COC(=O)[C@H](C)N[P@](=O)(OC[C@H]1O[C@@](C#N)(c2ccc3c(N)ncnn23)[C@H](O)[C@@H]1O)Oc1ccccc1 [Remdesivir, reference compound] |  |  |  | below the level of quantitation |

| SMILES | Blood Nuc level at 1 hour [1] | Liver NTP level at 1 hour [1] [x] | Blood Nuc level at 5 hours [1] [x] | Liver NTP level at 5 hours [1] [x] | Lung levels of the metabolite nucleoside, exposure relative to Remdesivir ([2]; rat, in vivo, 2 mg/kg) | Nucleoside triphosphate levels in the lung ([2]; rat, in vivo, 2 mg/kg) | Liver exposure of nucleoside triphosphate relative to IV or oral Remdesivir [1] | Nucleoside triphosphate levels in the lung ([2]; rats, 2 mg/kg inhalation route, FIG. 7) |
| --- | --- | --- | --- | --- | --- | --- | --- | --- |
| CCOC(=O)c1ccccc1COP1(=O)OC[C@H]2O[C@@](C#N)(c3ccc4c(N)ncnn34)[C@H](OC(C)=O)[C@@H]2O1 (stereo partly drawn) [Compound 105, Ethyl 2-((((4aR,6R,7R,7aR)-7-acetoxy-6-(4-aminopyrrolo[2,1-f][1,2,4]triazin-7-yl)-6-cyano-2-oxidotetrahydro-4H-furo[3,2-d][1,3,2]dioxaphosphinin-2-yl)oxy)methyl)benzoate] | ≥2x* | ≥2 | ≥2 | ≥2 | more than 4 times | significant lung exposure of the triphosphate | significantly greater liver exposure than either IV or oral Remdesivir |  |
